Measured values from patent US20230303512A1, “MODULATORS OF MYB-MEDIATED TRANSCRIPTION AND USES THEREOF” (Massachusetts Institute of Technology, priority 2020, published 2023).

Tests used:
endogenous Myb protein = assay: Molt4-5×MRE-FLuc reporter assay; type: cell-based; details: 4 hours, One-Glo, normalized to DMSO; read-out: IC50 Molt4-5xMRE-FLuc Reporter
Experimental: Molt4 cells were stably transduced with a lentiviral construct encoding a 5×MRE Myb-responsive promoter driving firefly luciferase expression. The reporter output is controlled by the levels/activity of endogenous Myb protein in the Molt4 cell line.
Molt4-5×MRE-FLuc cells were plated at a density of 10000 cells/well in 25 uL of media in a 384-well plate. Compound analogs were added using a Tecan transfer tool to the wells. The plate was incubated for 4 hours, and then firefly luciferase signal measured using promega One-Glo luciferase assay system according to the manufacturer's protocols. The signal was normalized to control wells which were treated with DMSO vehicle.

Molt4-5×MRE-FLuc cells = assay: Cell-Titer Glo viability assay, Molt4-5×MRE-FLuc cells; type: cell-based; details: 4 hours; read-out: IC50 Cell Titer Glo Molt4-5xMRE-FLuc Viability
Experimental: Molt4-5×MRE-FLuc cells were plated at a density of 10000 cells/well in 25 uL of media in a 384-well plate. The following day, compound analogs were added using a Tecan transfer tool. The plates were incubated for 4 hours, and then the viability was measured using promega Cell-titer glo assay according to the manufacturer's protocols.

IC50 (Molt4-5×MRE-FLuc cells) [µM] | SMILES | IC50 (endogenous Myb protein) [µM]
> 40 | Cc1cc(N2CCC(N(Cc3cccc(N4CCCC4)c3)C(=O)NC(C)C)CC2)nc(N)n1 [KI-TM1-003, 1-(1-(2-Amino-6-methylpyrimidin-4-yl)piperidin-4-yl)-3-isopropyl-1-(3-(pyrrolidin-1-yl)benzyl)urea] | > 40
> 40 | Cc1cc(N2CCC(NCc3cccc(CN4CCCC4)c3)CC2)nc(N)n1 [KI-TM1-028, 4-Methyl-6-(4-((3-(pyrrolidin-1-ylmethyl)benzyl)amino)piperidin-1-yl)pyrimidin-2-amine] | > 40
> 40 | CC(=O)N(Cc1cccc(N2CCCC2)c1)C1CCN(c2cc(C)nc(N)n2)CC1 [KI-TM1-004, N-(1-(2-amino-6-methylpyrimidin-4-yl)piperidin-4-yl)-N-(3-(pyrrolidin-1-yl)benzyl)acetamide] | > 40
> 40 | Cc1cc(N2CCC(NCc3cccc(-n4cccc4)c3)CC2)nc(N)n1 [KI-TM1-010, 4-(4-((3-(1H-pyrrol-1-yl)benzyl)amino)piperidin-1-yl)-6-methylpyrimidin-2-amine] | 21.2
> 40 | Nc1nc(Cl)cc(N2CCC(NCc3cccc(N4CCCC4)c3)CC2)n1 [KI-TM1-038, 4-Chloro-6-(4-((3-(pyrrolidin-1-yl)benzyl)amino)piperidin-1-yl)pyrimidin-2-amine] | > 40
> 40 | Cc1cc(N2CCC(N(Cc3cccc(N4CCCC4)c3)C(=O)C=COCCOCCOCCN)CC2)nc(N)n1 [KI-TM1-031, N-(1-(2-Amino-6-methylpyrimidin-4-yl)piperidin-4-yl)-3-(2-(2-(2-aminoethoxy)ethoxy)-ethoxy)-N-(3-(pyrrolidin-1-yl)benzyl)propenamide] | > 40
> 40 | Cc1cc(N2CCC[C@H](NCc3cccc(N4CCCC4)c3)C2)nc(N)n1 [KI-TM1-016S, (S)-4-Methyl-6-(3-((3-(pyrrolidin-1-yl)benzyl)amino)piperidin-1-yl)pyrimidin-2-amine] | 22.3
> 40 | Cc1cc(N2CCC(NCc3ccccc3N3CCCC3)CC2)nc(N)n1 [KI-TM1-006, 4-methyl-6-(4-((2-(pyrrolidin-1-yl)benzyl)amino)piperidin-1-yl)pyrimidin-2-amine] | > 40
> 40 | Cc1cc(N2CCC(NCc3cccc(N(C)C)c3)CC2)nc(N)n1 [KI-TM1-011, 4-(4-((3-(dimethylamino)benzyl)amino)piperidin-1-yl)-6-methylpyrimidin-2-amine] | > 40
> 40 | Cc1cc(N2CCC(NCc3cccc(N4CCCC4)c3)CC2)nc(NCCO)n1 [KI-TM1-037, 2-((4-Methyl-6-(4-((3-(pyrrolidin-1-yl)benzyl)amino)piperidin-1-yl)pyrimidin-2-yl)amino)ethan-1-ol] | > 40
> 40 | Cc1cc(N2CCC(NCc3cccc(C(C)(C)C)c3)CC2)nc(N)n1 [KI-TM1-026, 4-(4-((3-(tert-Butyl)benzyl)amino)piperidin-1-yl)-6-methylpyrimidin-2-amine] | > 40
> 40 | CCN(CC)c1ccc(CNC2CCN(c3cc(C)nc(N)n3)CC2)cc1 [KI-TM1-027, 4-(4-((4-(Diethylamino)benzyl)amino)piperidin-1-yl)-6-methylpyrimidin-2-amine] | > 40
> 40 | Cc1cc(N2CCC(NCc3cccc(N4CCOCC4)c3)CC2)nc(N)n1 [KI-TM1-040, 4-Methyl-6-(4-((3-morpholinobenzyl)amino)piperidin-1-yl)pyrimidin-2-amine] | > 40
> 40 | Cc1cc(N2CCC(NCc3cccc(-n4ccnc4)c3)CC2)nc(N)n1 [KI-TM1-014, 4-(4-((3-(1H-imidazol-1-yl)benzyl)amino)piperidin-1-yl)-6-methylpyrimidin-2-amine] | > 40
> 40 | Cc1cc(N2CCC(NCc3cccc(N4CCCC4)c3)CC2)ncn1 [KI-TM1-019, 1-(6-Methylpyrimidin-4-yl)-N-(3-(pyrrolidin-1-yl)benzyl)piperidin-4-amine] | 22.1
> 40 | Cc1cc(N2CCC(NC(=O)c3cccc(N4CCCC4)c3)CC2)nc(N)n1 [KI-TM1-008, N-(1-(2-amino-6-methylpyrimidin-4-yl)piperidin-4-yl)-3-(pyrrolidin-1-yl)benzamide] | > 40
> 40 | Cc1cc(N2CCC(NCc3cccc(N4CCCC4)c3)CC2)nc(NCCOCCOCCOCCN)n1 [KI-TM1-041, N-(2-(2-(2-(2-Aminoethoxy)ethoxy)ethoxy)ethyl)-4-methyl-6-(4-((3-(pyrrolidin-1-yl)benzyl)amino)piperidin-1-yl)pyrimidin-2-amine] | > 40
> 40 | Cc1cc(N2CCCC(N(Cc3cccc(N4CCCC4)c3)C(=O)C=COCCOCCOCCN)C2)nc(N)n1 (stereo not drawn) [KI-TM1-032, N-(1-(2-Amino-6-methylpyrimidin-4-yl)piperidin-3-yl)-3-(2-(2-(2-aminoethoxy)ethoxy)-ethoxy)-N-(3-(pyrrolidin-1-yl)benzyl)propenamide] | > 40
> 40 | Cc1cc(N2CCC(NCc3ccc(N4CCCC4)cc3)CC2)nc(N)n1 [KI-TM1-007, 4-methyl-6-(4-((4-(pyrrolidin-1-yl)benzyl)amino)piperidin-1-yl)pyrimidin-2-amine] | > 40
> 40 | Cc1cnc(N)nc1N1CCC(NCc2cccc(N3CCCC3)c2)CC1 [KI-TM1-036, 5-Methyl-4-(4-((3-(pyrrolidin-1-yl)benzyl)amino)piperidin-1-yl)pyrimidin-2-amine] | 24.9
> 40 | Cc1cc(N2CCC(NCc3cccc(N4CCCCC4)c3)CC2)nc(N)n1 [KI-TM1-009, 4-methyl-6-(4-((3-(piperidin-1-yl)benzyl)amino)piperidin-1-yl)pyrimidin-2-amine] | 23.2
> 40 | Cc1cc(N2CCC(NCc3cccc(N4CCN(C)CC4)c3)CC2)nc(N)n1 [KI-TM1-039, 4-Methyl-6-(4-((3-(4-methylpiperazin-1-yl)benzyl)amino)piperidin-1-yl)pyrimidin-2-amine] | > 40
> 40 | Cc1cc(N2CCC(N(CCCCCCOCCOCC(=O)Nc3cccc4c3C(=O)N(C3CCC(=O)NC3=O)C4=O)Cc3cccc(N4CCCC4)c3)CC2)nc(N)n1 (stereo not drawn) [KI-TM1-044, 2-(2-((6-((1-(2-Amino-6-methylpyrimidin-4-yl)piperidin-4-yl)(3-(pyrrolidin-1-yl)benzyl)amino)hexyl)oxy)ethoxy)-N-(2-(2,6-dioxopiperidin-3-yl)-1,3-dioxoisoindolin-4-yl)acetamide] | > 40
> 40 | Cc1cc(NCCCNCc2cccc(N3CCCC3)c2)nc(N)n1 [KI-TM1-017, 6-Methyl-N^4-(3-((3-(pyrrolidin-1-yl)benzyl)amino)propyl)pyrimidine-2,4-diamine] | > 40
> 40 | Cc1cc(N2CCC(N(CCCCCCOCCOCCOCCCCCC(=O)Nc3cccc4c3C(=O)N(C3CCC(=O)NC3=O)C4=O)Cc3cccc(N4CCCC4)c3)CC2)nc(N)n1 (stereo not drawn) [KI-TM1-043, 2-(1-(2-amino-6-methylpyrimidin-4-yl)piperidin-4-yl)-N-(2-(2,6-dioxopiperidin-3-yl)-1,3-dioxoisoindolin-4-yl)-1-(3-(pyrrolidin-1-yl)phenyl)-9,12,15-trioxa-2-azahenicosan-21-amide] | > 40
> 40 | COc1cccc(CNC2CCN(c3cc(C)nc(N)n3)CC2)c1 [KI-TM1-012, 4-(4-((3-methoxybenzyl)amino)piperidin-1-yl)-6-methylpyrimidin-2-amine] | > 40
> 40 | CCCNC(=O)N(Cc1cccc(N2CCCC2)c1)C1CCN(c2cc(C)nc(N)n2)CC1 [KI-TM1-034, 1-(1-(2-Amino-6-methylpyrimidin-4-yl)piperidin-4-yl)-3-propyl-1-(3-(pyrrolidin-1-yl)benzyl)urea] | > 40
> 40 | C#CCCC1(CCN(Cc2cccc(N3CCCC3)c2)C2CCN(c3cc(C)nc(N)n3)CC2)N=N1 [KI-TM1-030, 4-(4-((2-(3-(But-3-yn-1-yl)-3H-diazirin-3-yl)ethyl)(3-(pyrrolidin-1-yl)benzyl)amino)-piperidin-1-yl)-6-methylpyrimidin-2-amine] | 19.8
> 40 | Cc1cc(N2CCC[C@@H](NCc3cccc(N4CCCC4)c3)C2)nc(N)n1 [KI-TM1-016R, (R)-4-Methyl-6-(3-((3-(pyrrolidin-1-yl)benzyl)amino)piperidin-1-yl)pyrimidin-2-amine] | > 40
> 40 | Cc1cc(N2CCC(NCc3cccc(N4CCCC4)c3)CC2)nc(Cl)n1 [KI-TM1-033, 1-(2-Chloro-6-methylpyrimidin-4-yl)-N-(3-(pyrrolidin-1-yl)benzyl)piperidin-4-amine] | 23.5
